# Measurements as given in PubChem BioAssay (NCI).
#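 Protocol summary: plate cells (96-well), add compound at 5 concentrations, incubate 48 h, interpolate endpoints linearly. Abbreviation: GI50, concentration required for 50% inhibition of growth. TGI: concentration producing complete growth inhibition.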
# System: MDA-MB-468 breast
# Experiment: NCI-60 cell line screen, 48 h
SMILES,GI50,TGI
O=C(N/N=C/c1ccc(O)cc1O)c1cccnc1,2.23 µM,11.8 µM
CN(C)CCNc1nc2ccccc2c2c(=O)c3cc(F)ccc3sc12,1.65 µM,3.22 µM
NC(=O)CNc1ccc([As]=[As]c2ccc(NCC(N)=O)cc2)cc1 (stereo not given),1.13 µM,4.09 µM
Cc1noc2c1-c1ccccc1C(c1ccc(Cl)cc1)=N[C@H]2CC(N)=O,1.5 µM,> 64.5 µM
O=C1c2ccccc2C(=O)c2c(NCCN=Cc3ccccc3O)cccc21,1.69 µM,4.42 µM
